Tests used:
mice [1] = details: mouse, in vivo, ip
Description: (§1) The products to be studied were administered by the intraperitoneal route at increasing doses to batches of 10 mice. The mortality provoked by the products studied were noted during the 24 hours following administration of the product.
During the same experiments, the convulsivant threshold dose of the product is also noted, i.e. the minimum dose for which a convulsivant activity begins to be shown.
(§2) Three products of the prior art are given in this Table by way of comparison: […]

[2] = Acute toxicity (mortality during 24 hours, i.p.); details: mouse, in vivo, ip
Description: as §1
(§3) From the results obtained, the LD 50, i.e. the dose provoking the death of 50% of the animals studied, is determined for each of the products studied.
as §2

[3] = in vivo; cited from earlier work
despair reaction = assay: Despair reaction (behavioral despair); assay type: in vivo, female mouse, CDI (Charles River); details: one hour before the test; for Behavioral Despair (change of immobility time): immobility between 2nd and 6th minute
Description: This test was carried out in the female mouse, CDI (Charles River), weighing 18 to 23 g, according to the method described by Porsolt (Archives Internationales de Pharmacodynamie, 1977, 229, 327-336). The principle of this test is as follows: when a mouse is placed in a narrow recipient, filled with water, it struggles, then, after 2 to 4 mins., it becomes still and floats on its stomach, its back rounded, its rear paws drawn up under its body and it makes only a few movements necessary for maintaining its head out of the water. This reaction is called the despair reaction. Certain psychotherapeutic agents, particularly the antidepressants, extend the time during which the mouse struggles. The following protocol was chosen: The products to be studied were administered by the i.p. route one hour before the test. For the test, the animals are placed in a narrow recipient (10×10×10 cm), filled with water, up to a height of 6 cm, the temperature of the water being 24° C.±2° C. […] Each substance was studied on a batch of 10 mice. The results are the average of at least two experiments.

[4] = per os; cited from earlier work
[5] = test system: ptosis induced by reserpine; assay: Antagonism of the ptosis induced by reserpine; assay type: in vivo, female mice CDI (Charles River); details: Mus musculus, ip, reserpine 2 mg/kg i.v. simultaneously, 1 hour
Description: This test, described by GOURET (Journal de Pharmacologie (Paris), 1973, 4 (1), 105-128), was made on the female mice CDI (Charles River), weighing 20±1 g. The reserpine causes a ptosis one hour after intravenous administration thereof; certain antidepressants oppose this ptosis. The following protocol was chosen: The substances to be studied were administered by the i.p. route. […] One hour after administration of reserpine, the number of animals not presenting ptosis is noted. This test was carried out on batches of 10 mice, the results are expressed in percentage of animals not presenting ptosis and are the average of at least two experiments. By way of comparison, the results obtained with the three products of the prior art, Minaprine, CM 30070 and CM 30071 have also been indicated.

mice [6] = assay: Acute toxicity (mortality during 24 hours, i.p.); details: mouse, in vivo, ip, 1440 min
Description: as §1, §3, §2

SMILES | Convulsivant threshold dose (mice [1]) | LD50 at 24 h [2] | ED50 [5] | LD50 at 24 h ([2]; mice, 24 hours) | other results
NCCNc1ccc(-c2ccccc2)nn1 [SR 95085] | > 200 mg/kg | > 200 mg/kg | – | – | –
NCCNc1nnccc1-c1ccccc1 [SR 95002] | 100 mg/kg | ~150 mg/kg | – | – | –
Cc1cc(-c2ccccc2)nnc1NCCN1CCOCC1 [Minaprine] | 35 mg/kg | – | 5 mg/kg | – | type of psychotherapeutic action [3]: "disinhibitory" activity; Behavioral Despair (change of immobility time) (despair reaction; 10 mg/kg i.p.): -35%; dose at which the product proves convulsivant [4]: higher than 100 mg/kg
Cc1cc(-c2ccc(O)cc2)nnc1NCCN [SR 95073, 3-(2-Amino Ethylamino)4-Methyl 6-(4-Hydroxy Phenyl)Pyridazine] | > 200 mg/kg | – | – | > 200 mg/kg | –
Cc1cc(-c2ccccc2)nnc1NCCCN [CM 30486, 3-(3-aminopropylamino)4-methyl 6-phenyl pyridazine] | > 200 mg/kg | – | ~10 mg/kg | > 200 mg/kg | Behavioral Despair (change of immobility time) (despair reaction; 10 mg/kg i.p.): -20%
Cc1cc(-c2ccccc2)nnc1NCCN(C)C [CM 30071, reference compound] | 100 mg/kg | – | ~50 mg/kg | – | Behavioral Despair, result in words (despair reaction; 10 mg/kg i.p.): inactive; LD50 (mice [6]): 118 (101-139) mg/kg
CCN(CC)CCNc1nnc(-c2ccccc2)cc1C [CM 30070, reference compound] | 60 mg/kg | 80 mg/kg | ~50 mg/kg | – | Behavioral Despair, result in words (despair reaction; 25 mg/kg i.p.): inactive
Cc1cc(-c2ccccc2)nnc1NCCCCN [CM 30487, 3-(4-aminobutylamino)4-methyl 6-phenyl pyridazine] | > 200 mg/kg | – | – | > 200 mg/kg | –
Cc1cc(-c2ccccc2)nnc1NCCN [CM 30099, 3-(2-Amino Ethylamino)4-Methyl 6-Phenyl Pyridazine] | 200 mg/kg | – | 16 mg/kg | > 200 mg/kg | Behavioral Despair (change of immobility time) (despair reaction; 10 mg/kg i.p.): -50%
NCCNc1cc(-c2ccccc2)cnn1 [SR 95086] | > 200 mg/kg | > 200 mg/kg | – | – | –
CNCCNc1nnc(-c2ccccc2)cc1C [SR 95029, 2-(2-Methylamino Ethylamino)4-Methyl 6-Phenyl Pyridazine] | 200 mg/kg | – | – | > 200 mg/kg | –

From patent US4508720A, “Amino derivatives of pyridazine, and compositions thereof for the central nervous system” (Sanofi, priority 1981, dated 1985)
